In patent publication US8642647B2, “N1-benzo[1,3]dioxol-5-ylmethyl-N2-substituted biguanide derivative, preparation method thereof, and pharmaceutical composition containing same” (Hanall Biopharma Co., Ltd., priority 2008, dated 2014):
Where a name gives a salt, the structure may show the parent alone.

Columns and labels:
Type in all cases: cell-based
HepG2 cells [1] = test: Measurement of cholesterol synthesis inhibitory ability; details: for Cholesterol (100 μM) aver.: 100 μM compound; for Cholesterol (100 μM) aver. / Cholesterol (500 μM) aver.: 24 hours, HepG2 cells, content of cholesterol formed, lower value = stronger inhibition; for Cholesterol (500 μM) aver.: 500 μM compound
Experimental: (§1) 2 mM metformin was used as a comparative compound for each of the plates (control group).
A cholesterol synthesis inhibitory ability, which is an important function of AMPK (AMP-activated protein kinase), was measured using HepG2 cells (ATCC: American Type Culture Collection) as a hepatic cell model according to the following procedure.
The hepatic cell model HepG2 cells were cultured in 1% serum-containing media (DMEM (Gibco), FBS (Gibco)) for 24 hours, and then treated with 100 μM or 500 μM of each of the compounds prepared in Examples for 24 hours. Then, the cells were disrupted with a lysis solution (0.1 M potassium phosphate, pH 7.4, 0.05 M NaCl, 5 mM cholic acid, 0.1% Triton X-100 (Sigma)). To the disrupted cells was added the same volume of a reaction solution (2 U/ml of a cholesterol oxidizing agent, 2 U/ml of a peroxidase, 0.2 U/ml of a cholesterol esterase, and 300 μM of Amplex red as a fluorescent factor (Molecular Probe)), which was allowed to react at 37° C. for 30 minutes. After completion of the reaction, the content of cholesterol formed in the cell lysates was measured at a wavelength of 560/590 nm (ex/em) using a fluorescence microscope.
A lower measurement value means an increased cholesterol synthesis inhibitory ability.

HepG2 cells [2] = test: Measurement of triglyceride synthesis inhibitory ability; details: 24 hours, HepG2 cells, content of triglyceride formed, lower value = stronger inhibition; for Triglyceride (100 μM) aver.: 100 μM compound; for Triglyceride (500 μM) aver.: 500 μM compound
Experimental: as §1
HepG2 cells (ATCC: American Type Culture Collection) were cultured in 1% serum-containing media (DMEM (Gibco), FBS (Gibco)) for 24 hours, and then treated with 100 μM or 500 μM of each of the compounds prepared in Examples for 24 hours. Then, the cells were disrupted with a lysis solution (0.1 M potassium phosphate, pH 7.4, 0.05 M NaCl, 5 mM cholic acid, 0.1% Triton X-100). To the disrupted cells was added the same volume of a reaction solution (0.76 U/ml of a glycerol kinase (Asan Pharmaceutical Co., Ltd.), […] of a peroxidase (Asan Pharmaceutical Co., Ltd.), 22.2 U/ml of a glycerol oxidizing agent (Asan Pharmaceutical Co., Ltd.), and 300 μM of Amplex red as a fluorescent factor (Molecular Probe)), which was allowed to react at 37° C. for 30 minutes. After completion of the reaction, the content of triglyceride formed in the cell lysates was measured at a wavelength of 560/590 nm (ex/em) using a fluorescence microscope.
A lower measurement value means an increased triglyceride synthesis inhibitory ability.

HepG2 cells [3] = test: Measurement of gluconeogenesis inhibitory ability; details: Homo sapiens, HepG2, 24 h, 100 μM compound, 24 hours, HepG2 cells; content of glucose formed from 14C-lactate; lower value = stronger inhibition; read-out: Gluconeogenesis inhibition (100 μM) aver.
Experimental: as §1
HepG2 cells (ATCC: American Type Culture Collection) were cultured in 10% serum-containing high glucose media, transferred to no serum-containing low glucose media (DMEM (Gibco), FBS (Gibco)), and then treated with 100 μM of each of the compounds for 24 hours. Then, the cells were treated with 0.5 μCi ^14C-lactate (Amersham Pharmacia) and 10 mM L-lactate (Sigma), and cultured for 4 hours. After cultivation, the media were removed therefrom, and the cells were washed with PBS, treated with 0.1N NaOH and kept at room temperature for 1 hour. Then, the cells were neutralized with 1N HCl, and the content of glucose formed in the cells was measured with a liquid scintillation counter.
A lower measurement value means an increased gluconeogenesis inhibitory ability.

| Structure (SMILES) | Cholesterol (100 μM) aver. (HepG2 cells [1]) | Cholesterol (500 μM) aver. (HepG2 cells [1]) | Triglyceride (100 μM) aver. (HepG2 cells [2]) | Triglyceride (500 μM) aver. (HepG2 cells [2]) | activity at 100 µM (HepG2 cells [3]) [%] | effect in inhibiting cholesterol synthesis better than that of the control group (HepG2 cells [1]; 100 μM compound versus 2 mM metformin) |
| --- | --- | --- | --- | --- | --- | --- |
| CCN=C(NCc1ccc2c(c1)OCO2)NC(=N)N.Cl [Example 1, N1-benzo[1,3]dioxol-5-ylmethyl-N2-ethyl biguanide hydrochloride] | 66.3 | 50.8 | 98.6 | 49.6 | 89.8 | – |
| Cl.N=C(N)NC(=NC1CCCCC1)NCc1ccc2c(c1)OCO2 [Example 2, N1-benzo[1,3]dioxol-5-ylmethyl-N2-cyclohexyl biguanide hydrochloride] | 43.7 | 15.6 | 108.9 | 26.9 | 95.2 | – |
| N=C(N)NC(=Nc1cccc2ccccc12)NCc1ccc2c(c1)OCO2 [Example 3, N1-benzo[1,3]dioxol-5-ylmethyl-N2-(1-naphthyl)biguanide hydrochloride] | 8.11 | 28.8 | 3.74 | −6.97 | 3.27 | – |
| CCCCCCN=C(NCc1ccc2c(c1)OCO2)NC(=N)N.Cl [Example 6, N1-benzo[1,3]dioxol-5-ylmethyl-N2-hexyl biguanide hydrochloride] | 31.8 | 19.1 | 97.8 | 70.3 | 104 | – |
| N=C(N)NC(=NCCc1ccccc1)NCc1ccc2c(c1)OCO2 [Example 7, N1-benzo[1,3]dioxol-5-ylmethyl-N2-(phenethyl)biguanide hydrochloride] | 23.6 | 12.9 | 77.1 | 11.8 | 118 | – |
| Cl.N=C(N)NC(=Nc1cccc(C(F)(F)F)c1)NCc1ccc2c(c1)OCO2 [Example 10, N1-benzo[1,3]dioxol-5-ylmethyl-N2-(3-trifluoromethylphenyl)biguanide hydrochloride] | 33.41 | – | 11.52 | – | 2.76 | – |
| Cc1ccc(CN=C(NCc2ccc3c(c2)OCO3)NC(=N)N)cc1.Cl [Example 11, N1-benzo[1,3]dioxol-5-ylmethyl-N2-(4-methylbenzyl)biguanide hydrochloride] | 32.34 | – | 7.49 | – | 1.81 | – |
| COc1ccc(OC)c(N=C(NCc2ccc3c(c2)OCO3)NC(=N)N)c1.Cl [Example 12, N1-benzo[1,3]dioxol-5-ylmethyl-N2-(2,5-dimethoxyphenyl)biguanide hydrochloride] | 58.53 | – | 84.10 | – | 27.4 | – |
| Cl.N=C(N)NC(=Nc1ccc2c(c1)Cc1ccccc1-2)NCc1ccc2c(c1)OCO2 [Example 13, N1-benzo[1,3]dioxol-5-ylmethyl-N2-(2-fluorenyl)biguanide hydrochloride] | 31.42 | – | 9.22 | – | 2.15 | – |
| Cl.N=C(N)NC(=Nc1ccc(F)cc1)NCc1ccc2c(c1)OCO2 [Example 14, N1-benzo[1,3]dioxol-5-ylmethyl-N2-(4-fluorophenyl)biguanide hydrochloride] | 57.35 | – | 115.04 | – | 102 | – |
| COc1ccc(N=C(NCc2ccc3c(c2)OCO3)NC(=N)N)cc1.Cl [Example 15, N1-benzo[1,3]dioxol-5-ylmethyl-N2-(4-methoxyphenyl)biguanide hydrochloride] | 52.95 | – | 104.17 | – | 75.6 | at least 20 times |
| CCCN=C(NCc1ccc2c(c1)OCO2)NC(=N)N.Cl [Example 16, N1-benzo[1,3]dioxol-5-ylmethyl-N2-propyl biguanide hydrochloride] | 38.66 | – | 32.56 | – | 33.1 | – |
| C=CCN=C(NCc1ccc2c(c1)OCO2)NC(=N)N [Example 18, N1-benzo[1,3]dioxol-5-ylmethyl-N2-allyl biguanide hydrochloride] | 40.31 | 9.71 | 97.00 | 46.89 | 95.1 | – |
| Cl.N=C(N)NC(=NC1CCCC1)NCc1ccc2c(c1)OCO2 [Example 19, N1-benzo[1,3]dioxol-5-ylmethyl-N2-cyclopentyl biguanide hydrochloride] | 57.58 | 27.93 | 100.59 | 80.60 | 92.7 | – |
| Cl.N=C(N)NC(=NC1CCCCCC1)NCc1ccc2c(c1)OCO2 [Example 20, N1-benzo[1,3]dioxol-5-ylmethyl-N2-cycloheptyl biguanide hydrochloride] | 31.37 | −14.69 | 99.89 | 41.32 | 39.4 | – |
| CC(C)N=C(NCc1ccc2c(c1)OCO2)NC(=N)N.Cl [Example 22, N1-benzo[1,3]dioxol-5-ylmethyl-N2-isopropyl biguanide hydrochloride] | 63.99 | 34.97 | 78.51 | 60.13 | 83 | – |
| CC(C)CN=C(NCc1ccc2c(c1)OCO2)NC(=N)N.Cl [Example 23, N1-benzo[1,3]dioxol-5-ylmethyl-N2-isobutyl biguanide hydrochloride] | 68.02 | 36.29 | 84.58 | 59.80 | 100 | – |
| COc1cc(N=C(NCc2ccc3c(c2)OCO3)NC(=N)N)cc(OC)c1OC.Cl [Example 24, N1-benzo[1,3]dioxol-5-ylmethyl-N2-(3,4,5-trimethoxyphenyl)biguanide hydrochloride] | 65.36 | 31.14 | 80.30 | 60.08 | 88.7 | – |
| CCCCCCc1ccc(N=C(NCc2ccc3c(c2)OCO3)NC(=N)N)cc1.Cl [Example 25, N1-benzo[1,3]dioxol-5-ylmethyl-N2-(4-hexylphenyl)biguanide hydrochloride] | 82.62 | 125.3 | 18.43 | 35.53 | 2.53 | – |
| COc1cc(N=C(NCc2ccc3c(c2)OCO3)NC(=N)N)cc(OC)c1.Cl [Example 26, N1-benzo[1,3]dioxol-5-ylmethyl-N2-(3,5-dimethoxyphenyl)biguanide hydrochloride] | 61.86 | 17.53 | 86.94 | 21.88 | 87.6 | – |
| Cl.N=C(N)NC(=NC12CC3CC(CC(C3)C1)C2)NCc1ccc2c(c1)OCO2 [Example 27, N1-benzo[1,3]dioxol-5-ylmethyl-N2-(1-adamantyl)biguanide hydrochloride] | 64.82 | 45.24 | 67.58 | 11.48 | 31.4 | – |
